Patent US20140107170A1, “COMPOSITION COMPRISING ANGIOTENSIN II RECEPTOR ANTAGONIST AND ANTIOXIDANT FOR MAINTAINING AND/OR IMPROVING SKIN PROPERTIES” (priority 2011, published 2014)

Test system: Dermal fibroblast cells
Assay: Dermal fibroblast survival under oxidative stress (H2O2), MTS viability test, Example 3
Format: cell-based
Settings: preincubation till the next day, H2O2 (1 mmol) 15 minutes, MTS after 24 hours, valsartan 1.0 μmol, vitamin A 1 μmol, vitamin C 100 μmol, vitamin E 10 μmol
Protocol: Dermal fibroblast cells were grown in Advanced MEM supplemented with antibiotics (penicillin-streptomycin), 5% fetal bovine serum and L-glutamine (2 mmol/l) at 37° C. in a CO2 incubator (5% CO2, 95% air, 95% relative humidity. Cells were detached with Tryple™select. For experiments the cells were seeded in 96-well microtitre plates at a density 5×10^3 cells/well (5×10^4 cells/ml). Two hours after seeding, when the cells attached to the surface, the medium was replaced with the medium supplemented with vitamins (ACE), valsartan or their combination. The cells were incubated till the next day and then treated with H2O2 (1 mmol) for 15 minutes. After the treatment with H2O2 the cells were washed three times with PBS and than incubated in medium for 24 hours. Then the MTS viability test was performed.

Compound: CCCCC(=O)N(Cc1ccc(-c2ccccc2-c2nnn[nH]2)cc1)[C@H](C(=O)O)C(C)C [Valsartan, valsartan]
- % of survival after treatment with H2O2: 79%
- % of survival after treatment with H2O2 (listed as valsartan): 79%
